From patent US20050058745A1, “Use of Labiatae herb preparations for extending the flavor shelf life of malt beverages” (priority 2003, published 2005)

Key:
[1] = Dadic 1984; cited from earlier work
[2] = DCIP redox potential of light beer with carnosol; assay type: physicochemical; conditions: for DCIP Redox Potential: 2 to 4° C. for 1 day
Experimental: A 2% solution of carnosol, isolated from sage extract, was prepared by weighing 200 mg pure carnosol and bringing to 10 mL with pure ethanol. Bottles were dosed at 10 and 20 ppm carnosol with our standard bottle addition technique of opening, fobbing to exclude air, and crowning.
Bottles were stored at 2 to 4° C. for 1 day before analysis. Standard DCIP and DPPH measurements were taken.

[3] = Trained panel flavor evaluation, light beer, forced aging; conditions: 5 ppm, 6 days 32° C.; for preservation of fresh flavor (words): light beer
Experimental: Separate solution of pure rosmarinic acid, pure carnosol and pure carnosic acid were prepared in ethanol as previously.
The light beer used in this study was approximately one month old and was purchased at a local market. Bottle additions were done as in Example 1.
The bottles were placed in a heated room at 32±1° C. in the dark. After the allotted aging time, the bottles of beer were transferred to a dark refrigerator and stored at approximately 2° to 4° C. until they were analyzed. Additional bottles from the same code were kept unopened in 2° to 4° C. storage. These unopened samples from the same beer code were labeled “Fresh Control” used to provide fresh samples for the trained panel.
At the appropriate times, a trained 7-member panel evaluated the beers. […] Five beers were evaluated at the session—Fresh Control, Aged No Addition, and Aged containing each one of the Labiatae treatments. The overall preference rank, the character and intensity of the aroma, the levels of paper/cardboard aroma and flavor, sour or off flavors, hang and astringency and bitterness quality and intensity were evaluated.

[4] = DPPH number of light beer with carnosol; assay type: physicochemical; conditions: for DPPH No.: 2 to 4° C. for 1 day
Experimental: To perform the test, about 0.04 g of DPPH was weighed to the nearest 0.1 mg in a 100 mL volumetric, recording the exact weight of DPPH. The DPPH was dissolved in methanol and methanol was added to bring the volume to the 100 mL mark. The solution was sonicated to facilitate dissolution. The beers to be measured were opened and 12 mL of each was poured into separate 15 mL centrifuge tubes, making sure that the volumes in all tubes were equal. The analyses were done in triplicate for each beer. An extra beer sample served as a spectrophotometer blank. The beer was degassed by centrifuging it for 15 min at 6,000 rpm. Into each of two 25 mL flasks was pipeted 5 mL of the pH 4.5 water-ethanol buffer. The spectrophotometer wavelength was set to 531 nm and a buffered water blank was zeroed. 1.0 mL of DPPH solution was added to the water buffer, which was swirled at the same time a timer was started. Just before 10 minutes had elapsed, the sample was transferred to a cuvette and the absorbance (ABL) was measured. The analysis was duplicated with another buffer. For accuracy it is necessary that great care be taken to add exactly 1 mL reagent. It is also important to swirl (mix) the samples consistently as the assay is sensitive to oxygen and to the amount of reagent used. Degassed beer was used to obtain a baseline at 531 nm. After centrifugation 5 mL of the beer was transferred into the appropriate labeled 25 mL flask. 1.0 mL of DPPH solution was added, the solution was swirled and the timer was started. The Absorbance (A531) of the beer sample was recorded. This process was repeated for all samples. To eliminate any possible prejudice in order of analysis, samples were analyzed randomly. The following formula was used to calculate the amount of DPPH which reacts with 5 mL of beer: μmol DPPH=((1−A531/ABL)×(g DPPH/394))×10^6
A 2% solution of carnosol, isolated from sage extract, was prepared by weighing 200 mg pure carnosol and bringing to 10 mL with pure ethanol. […]

[5] = Walter et al. 1997; cited from earlier work

COc1ccc(O)c(C(C)(C)C)c1 [BHA]
effectiveness as antioxidant for beer [1]: ineffective

Cc1cc(C(C)(C)C)c(O)c(C(C)(C)C)c1 [BHT]
effectiveness as antioxidant for beer [1]: ineffective

CC(C)c1cc2c(c(O)c1O)[C@@]13CCCC(C)(C)[C@@H]1C[C@@H]2OC3=O [CN, carnosol]
effect on redox potential by DCIP method [2]: does not enhance the redox potential of beer
DCIP Redox Potential ([2]; 10 ppm Carnosol): 19.6
DCIP Redox Potential ([2]; 20 ppm Carnosol): 19.6
panelists' preference for treated sample over Aged No Addition sample [3]: 7 of 7 panelists preferred
preservation of fresh flavor (words) [3]: very significantly retards the rate of staling
preservation of fresh flavor (words) ([3]; listed as Carnosol): significant, positive impact on preserving fresh flavor
effect on beer's ability to reduce DPPH [4]: does not enhance a beer's ability to reduce DPPH
DPPH No. ([4]; 10 ppm Carnosol): 33.1 μmol DPPH
DPPH No. ([4]; 20 ppm Carnosol): 37.0 μmol DPPH

O=c1c(O)c(-c2ccc(O)c(O)c2)oc2cc(O)cc(O)c12 [quercitin]
effectiveness in standardized antioxidant assays [5]: ineffective

catechin
effectiveness in standardized antioxidant assays [5]: ineffective
